Data taken from PubChem BioAssay AID248 (DTP/NCI, 2004).
“And” between values parts separate entries of the source, which are not always exact repeats. Equal values may be shown once. Inconclusive results and toxic doses are left out. Rule as the data show it: active = T/C of 150% or more; inactive = T/C below 125%.

Test system: L1210 leukemia ip in BDF1 mice, survival T/C
Assay: NCI In Vivo Anticancer Drug Screen. Data for tumor model L1210 Leukemia (intraperitoneal) in B6D2F1 (BDF1) mice
Conditions: endpoint: mean survival time, higher = longer survival
Summary of the method: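 Mice bearing the transplanted tumor received compound or vehicle. Survival of the treated group was divided by that of the vehicle-treated control group to give the ratio.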

[1] = dose: 12.5 mg/kg/injection, schedule: Q01DX009 (ip), vehicle: Klucel (hydroxypropylcellulose) (HPC)
[2] = dose: 12.5 mg/kg/injection, schedule: Q04DX003 (ip), vehicle: Klucel (hydroxypropylcellulose) (HPC)
[3] = dose: 100.0 mg/kg/injection, schedule: Q04DX003 (ip), vehicle: saline with Tween-80
[4] = dose: 200.0 mg/kg/injection, schedule: Q04DX003 (ip), vehicle: saline with Tween-80
[5] = dose: 400.0 mg/kg/injection, schedule: Q04DX003 (ip), vehicle: saline with Tween-80
[6] = dose: 100.0 mg/kg/injection, schedule: Q01DX001 (ip), vehicle: saline
[7] = dose: 200.0 mg/kg/injection, schedule: Q01DX001 (ip), vehicle: saline
[8] = dose: 400.0 mg/kg/injection, schedule: Q01DX001 (ip), vehicle: saline
[9] = dose: 50.0 mg/kg/injection, schedule: Q04DX002 (ip), vehicle: saline with Tween-80
[10] = dose: 100.0 mg/kg/injection, schedule: Q04DX002 (ip), vehicle: saline with Tween-80
[11] = dose: 100.0 mg/kg/injection, schedule: Q04DX003 (ip), vehicle: Klucel (hydroxypropylcellulose) (HPC)
[12] = dose: 200.0 mg/kg/injection, schedule: Q04DX003 (ip), vehicle: Klucel (hydroxypropylcellulose) (HPC)
[13] = dose: 50.0 mg/kg/injection, schedule: Q01DX001 (ip), vehicle: saline with Tween-80
[14] = dose: 100.0 mg/kg/injection, schedule: Q01DX001 (ip), vehicle: saline with Tween-80
[15] = dose: 200.0 mg/kg/injection, schedule: Q01DX001 (ip), vehicle: saline with Tween-80
[16] = dose: 50.0 mg/kg/injection, schedule: Q01DX009 (ip), vehicle: saline with Tween-80

Measured: T/C

CCSC1=NCCS1
inactive: dose: 9.5 mg/kg/injection, schedule: Q01DX001 (ip), vehicle: other 103 % of control | dose: 19.0 mg/kg/injection, schedule: Q01DX001 (ip), vehicle: other 112 % of control | dose: 38.0 mg/kg/injection, schedule: Q01DX001 (ip), vehicle: other 103 % of control | dose: 75.0 mg/kg/injection, schedule: Q01DX001 (ip), vehicle: other 112 % of control | dose: 150.0 mg/kg/injection, schedule: Q01DX001 (ip), vehicle: other 101 % of control

N#CS/C=C\C(N)=O
inactive: dose: 3.0 mg/kg/injection, schedule: Q01DX009 (ip), vehicle: Klucel (hydroxypropylcellulose) (HPC) 94 % of control | dose: 6.0 mg/kg/injection, schedule: Q01DX009 (ip), vehicle: Klucel (hydroxypropylcellulose) (HPC) 108 % of control | dose: 12.0 mg/kg/injection, schedule: Q01DX009 (ip), vehicle: Klucel (hydroxypropylcellulose) (HPC) 106 % of control | [1] 104 % of control | [2] 90 % of control

C/C(=C/c1ccc(/C=C(\C)[N+](=O)[O-])cc1)[N+](=O)[O-]
inactive: dose: 10.0 mg/kg/injection, schedule: Q01DX001 (ip), vehicle: acetone 106 % of control

CCCOP(=O)(OCCC)C(OC(=O)C(C)(C)SC(=S)CCC)=C(C)C
inactive: [3] 97 % of control | [4] 100 % of control | [5] 94 % of control

OCC1OC(n2ccc3c(Cl)ncnc32)C(O)C1O (configuration not stated)
inactive: dose: 25.0 mg/kg/injection, schedule: Q01DX001 (ip), vehicle: saline 110 % of control | dose: 50.0 mg/kg/injection, schedule: Q01DX001 (ip), vehicle: saline 104 % of control | [6] 110 % of control | [7] 110 % of control

FC(F)(F)c1cccc(NC(=S)SCc2ccc(Cl)cc2)c1
inactive: dose: 15.0 mg/kg/injection, schedule: Q04DX003 (ip), vehicle: saline 102 % of control | dose: 30.0 mg/kg/injection, schedule: Q04DX003 (ip), vehicle: saline 102 % of control | dose: 60.0 mg/kg/injection, schedule: Q04DX003 (ip), vehicle: saline 102 % of control | dose: 100.0 mg/kg/injection, schedule: Q04DX002 (ip), vehicle: Klucel (hydroxypropylcellulose) (HPC) 87 % of control | dose: 200.0 mg/kg/injection, schedule: Q04DX002 (ip), vehicle: Klucel (hydroxypropylcellulose) (HPC) 112 % of control

CC(=O)[O][Hg][c]1s[c]([Hg][O]C(C)=O)[c]([Hg][O]C(C)=O)[c]1[Hg][O]C(C)=O
inactive: dose: 6.25 mg/kg/injection, schedule: Q04DX003 (ip), vehicle: Klucel (hydroxypropylcellulose) (HPC) 104 % of control | [2] 102 % of control | dose: 25.0 mg/kg/injection, schedule: Q04DX003 (ip), vehicle: Klucel (hydroxypropylcellulose) (HPC) 95 % of control | dose: 50.0 mg/kg/injection, schedule: Q04DX003 (ip), vehicle: Klucel (hydroxypropylcellulose) (HPC) 101 % of control

N#CCC[N+]1([O-])CCCC1C(=O)O (configuration not stated)
inactive: [6] 103 % of control | [7] 101 % of control | [8] 103 % of control

CNC
inactive: dose: 25.0 mg/kg/injection, schedule: Q04DX002 (ip), vehicle: saline with Tween-80 95 % of control | [9] 88 % of control | [10] 88 % of control

CC1=NN(c2ccc(S(=O)(=O)O)cc2)C(=O)/C1=C/c1ccc(Cl)cc1Cl
inactive: [6] 110 % of control | [11] 105 % of control | [7] 96 % of control | [12] 97 % of control | [8] 104 % of control | dose: 400.0 mg/kg/injection, schedule: Q04DX003 (ip), vehicle: Klucel (hydroxypropylcellulose) (HPC) 94 % of control

COc1ccc(NC(=O)/C=N/O)c(Cl)c1
inactive: dose: 200.0 mg/kg/injection, schedule: Q01DX001 (ip), vehicle: carboxymethylcellulose (CMC) 94 % of control | dose: 400.0 mg/kg/injection, schedule: Q01DX001 (ip), vehicle: carboxymethylcellulose (CMC) 90 % of control

O=C(Nc1nc2ccccc2[nH]1)c1ccc(C(=O)Nc2nc3ccccc3[nH]2)cc1
inactive: dose: 15.0 mg/kg/injection, schedule: Q01DX Z (ip), vehicle: other 100 % of control | dose: 30.0 mg/kg/injection, schedule: Q01DX Z (ip), vehicle: other 100 % of control | dose: 60.0 mg/kg/injection, schedule: Q01DX Z (ip), vehicle: other 100 % of control | dose: 120.0 mg/kg/injection, schedule: Q01DX Z (ip), vehicle: other 97 % of control | dose: 180.0 mg/kg/injection, schedule: Q01DX Z (ip), vehicle: carboxymethylcellulose (CMC) 102 % of control | dose: 270.0 mg/kg/injection, schedule: Q01DX Z (ip), vehicle: carboxymethylcellulose (CMC) 96 % of control

O=NN1CCCC1C(=O)O (configuration not stated)
inactive: [6] 101 % of control | [7] 101 % of control and 93 % of control

OC(Cc1ccc(-c2ccccc2)cc1)c1ccccc1 (configuration not stated)
inactive: [13] 93 % of control | [14] 91 % of control | [15] 91 % of control

N#Cc1ccc(Br)cc1[N+](=O)[O-]
inactive: dose: 6.25 mg/kg/injection, schedule: Q01DX009 (ip), vehicle: Klucel (hydroxypropylcellulose) (HPC) 103 % of control | [11] 89 % of control | [12] 86 % of control

Nc1cccc2c1C(=O)c1cccc(Cl)c1C2=O
inactive: [3] 94 % of control | [4] 101 % of control | [5] 94 % of control

COc1cc([N+](=O)[O-])ccc1NC(=O)N(C1CCCCC1)C1CCCCC1
inactive: [16] 100 % of control and 106 % of control | [9] 90 % of control | [14] 95 % of control | dose: 100.0 mg/kg/injection, schedule: Q01DX009 (ip), vehicle: saline with Tween-80 96 % of control and 108 % of control | [10] 93 % of control and 99 % of control and 105 % of control | [3] 108 % of control | [15] 91 % of control | dose: 200.0 mg/kg/injection, schedule: Q01DX009 (ip), vehicle: saline with Tween-80 100 % of control and 104 % of control | dose: 200.0 mg/kg/injection, schedule: Q04DX002 (ip), vehicle: saline with Tween-80 89 % of control | [4] 106 % of control | dose: 400.0 mg/kg/injection, schedule: Q01DX001 (ip), vehicle: saline with Tween-80 91 % of control | dose: 400.0 mg/kg/injection, schedule: Q01DX009 (ip), vehicle: saline with Tween-80 108 % of control and 111 % of control | dose: 400.0 mg/kg/injection, schedule: Q04DX002 (ip), vehicle: saline with Tween-80 93 % of control and 97 % of control and 99 % of control | [5] 104 % of control

O=C1C=CC(=O)N1c1ccc([N+](=O)[O-])cc1[N+](=O)[O-]
inactive: [1] 98 % of control | dose: 25.0 mg/kg/injection, schedule: Q01DX009 (ip), vehicle: Klucel (hydroxypropylcellulose) (HPC) 103 % of control | dose: 50.0 mg/kg/injection, schedule: Q01DX009 (ip), vehicle: Klucel (hydroxypropylcellulose) (HPC) 103 % of control | dose: 100.0 mg/kg/injection, schedule: Q01DX009 (ip), vehicle: Klucel (hydroxypropylcellulose) (HPC) 105 % of control

O=C(COc1ccc(Cl)c(Cl)c1)NCc1ccc[n+](Cc2cc(Cl)ccc2S(=O)(=O)F)c1
inactive: [3] 101 % of control | [4] 114 % of control | [5] 88 % of control

Cc1ccc(-n2cnnn2)cc1
inactive: [6] 103 % of control | [7] 104 % of control | [8] 103 % of control

COc1ccc(C(=O)/C=C/c2ccccc2Cl)cc1
inactive: [3] 97 % of control | [4] 97 % of control

O=C1C(=C(C(F)(F)Cl)C(F)(F)Cl)C2CCC1C2 (configuration not stated)
inactive: dose: 6.25 mg/kg/injection, schedule: Q01DX009 (ip), vehicle: saline with Tween-80 95 % of control | dose: 12.0 mg/kg/injection, schedule: Q01DX001 (ip), vehicle: saline with Tween-80 104 % of control | dose: 12.5 mg/kg/injection, schedule: Q01DX009 (ip), vehicle: saline with Tween-80 95 % of control | dose: 25.0 mg/kg/injection, schedule: Q01DX001 (ip), vehicle: saline with Tween-80 100 % of control | dose: 25.0 mg/kg/injection, schedule: Q01DX009 (ip), vehicle: saline with Tween-80 102 % of control and 92 % of control | [13] 100 % of control | [16] 107 % of control | [14] 91 % of control
